Measurements from paper PMC7312375, “A Novel, Pan-PDE Inhibitor Exerts Anti-Fibrotic Effects in Human Lung Fibroblasts via Inhibition of TGF-β Signaling and Activation of cAMP/PKA Signaling” (International Journal of Molecular Sciences, 2020).

Assays:
TRPA1 = target: T1, TRPA1 (Homo sapiens, UniProt O75762); test: TRPA1 antagonist FLIPR assay (functional, HEK293 cell-based)
T1 construct: host or cells: HEK293
Procedure: The TRPA1 agonist and antagonist fluorescent imaging plate reader (FLIPR) Assay (functional, HEK293 cell-based) was performed at Eurofins Panlabs, Inc. (St. Charles, MO, USA). The compounds were prepared in assay buffer to the final dilutions 10 and 50 µM. In each experiment, the respective reference compounds were tested: allyl isothiocyanate (the agonist assay) and ruthenium red (the antagonist assay). The […] assays were conducted on a FLIPR^TETRA instrument where the test compounds, vehicle controls, and reference agonists or antagonists were added to the assay plate after a fluorescence baseline was established. The agonist or antagonist incubation during the assay was for a total of 180 s and was used to assess each compound’s ability to activate or inactivate TRPA1. All plates were subjected to appropriate baseline corrections. Once baseline corrections were processed, maximum fluorescence values were exported, and data was manipulated to calculate percentage activation or percentage inhibition. Results showing activity greater than 25% were considered to represent significant effects of test compounds. Experiments were run three times, […].

MRC-5 cells [1] = test: FBS-induced MRC-5 proliferation, alamarBlue assay; assay type: cell-based, human; details: for inhibition at 50 µM: Homo sapiens, MRC5, read-out: inhibition of FBS-induced MRC-5 proliferation rate; for MRC-5 proliferation [% of control]: Table S1 (Figure 2B), 48 h with FBS
Procedure: The normal human lung fibroblast cell line—MRC-5 (ATCC® CCL-171™, Manassas, VA, USA)—was used in the study. Cells were cultured in Eagle’s Minimum Essential Medium (EMEM, ATCC® 30-2003™, Manassas, VA, USA) supplemented with 10% (v/v) fetal bovine serum (FBS; Gibco, Thermo Fisher Scientific, Waltham, MA, USA) and antibiotics mixture (penicillin, streptomycin, amphotericin B; Gibco, Thermo Fisher Scientific, Waltham, MA, USA) (standard culture medium) in standard culture conditions (5% CO2, 37 °C, 95% humidity). Unless otherwise specified, for the experiments, cells were seeded at a final density (5 × 10^3/cm^2) in standard culture medium for 24 h and then cultured in EMEM at reduced serum content (0.5%; v/v) for additional 24 h. TGF-β1 (BD Biosciences, San Jose, CA, USA) was administered at 5 ng/mL concentration in all experiments.
MRC-5 cell viability was evaluated using CytoTox-ONE™ Homogeneous Membrane Integrity Assay (Promega Corporation, Madison, WI, USA) according to the manufacturer’s protocol. The average fluorescence intensity with an excitation wavelength of 560 nm and an emission wavelength of 590 nm was measured using a microplate reader (SpectraMax® iD3, Molecular Devices, San Jose, CA, USA). Experiments were run three times in duplicates. MRC-5 proliferation was determined using the alamarBlue® assay. Cells were seeded for 24 h in standard culture medium, then serum-starved for an additional three days. Evaluated compounds (1-50 µM) were added 1 h prior FBS (10%, v/v) for an additional 48 h. After incubation, the alamarBlue® reagent (Invitrogen, Life Technologies, Carlsbad, CA, USA), dissolved in Hank’s Balanced Salt Solution (10% v/v; Gibco, Thermo Fisher Scientific, Waltham, MA, USA), was added for 30 min. After the observed color change, the supernatant was transferred to 96-well plates, and the absorbance was measured at 570 and 600 nm. The percent difference in reduction between treated and control cells was calculated according to the manufacturer’s protocol. The experiments were run three times in duplicates.

[2] = test system: TGF-β1-induced MRC-5 cells; test: Immunofluorescence count of α-SMA positive myofibroblasts; assay type: cell-based, human; details: 10 µM, 48 h TGF-β1 5 ng/mL
Procedure: (§1) For immunocytochemical labeling, MRC-5 cells were seeded on glass coverslips. Study compounds (10 µM) were added 1 h before TGF-β1 treatment, and analysis was performed after 1 h (p-Smad-2 and p-CREB detection) or 48 h (α-SMA detection) of incubation. Cells were fixed in methanol or 4% formaldehyde solution, permeabilized in 0.2% or 0.1% Triton X-100 solution (for p-Smad-2 and p-CREB or α-SMA, respectively). After incubation in blocking solution the following primary antibodies: rabbit polyclonal, anti-phospho-Smad-2 (Ser465, Ser467) antibody (#44-244G, Thermo Fisher Scientific, Waltham, MA, USA); rabbit polyclonal, anti-phospho-CREB1 (Ser133) antibody (#orb213775, Biorbyt, Cambridge, United Kingdom); mouse monoclonal, anti-α-SMA antibody (#MA5-11547, Thermo Fisher Scientific, Waltham, MA, USA) and secondary antibodies: goat anti-rabbit Alexa Fluor 546 conjugated antibody and goat anti-mouse Alexa Fluor 488 conjugated antibody (#A-11010 and #A-11001, respectively, Invitrogen, Carlsbad, CA, USA) were used. Nuclei were counterstained with Hoechst 33342 dye (Thermo Fisher Scientific, Waltham, MA, USA). Slides were mounted in ProLong™ Glass Antifade Mountant (Invitrogen, Carlsbad, CA, USA) and analyzed using Leica DMiL LED Fluo microscope (for α-SMA and p-CREB visualization, 40× objective) or Leica DMi8 with Thunder Imaging System (for p-Smad-2 visualization, 40× objective), all equipped with LAS-X Software (Leica Microsystems GmbH, Wetzlar, Germany). Experiments were run four times using five randomly selected fields of view, at the same fluorescent time exposure and in a blind-folded manner.

[3] = test system: TGF-β1-induced MRC-5 cells; test: Western blot of p-Smad-2; assay type: cell-based, human; details: 10 µM, 1 h pre-incubation, TGF-β1 5 ng/mL 1 h
Procedure: Western Blot analysis was performed according to a standard protocol. Briefly, MRC-5 cells were pre-incubated with the study compounds (10 µM) for 1 h, […] (RIPA Lysis and Extraction Buffer, Thermo Fisher Scientific, Waltham, MA, USA) and supplemented with protease inhibitor cocktail and phosphatase inhibitor cocktail (both from Sigma Aldrich, St. Louis, MO, USA). Equal amounts of protein (30 µg) were separated using 10% SDS-polyacrylamide gels and transferred onto polyvinylidene difluoride (PVDF) membranes (Thermo Fisher Scientific, Waltham, MA, USA). Then membranes were washed with Tris Buffered Saline with Tween 20 (TBST) buffer (150 mM NaCl, 50 mM Tris, 0.05% Tween 20), blocked with 5% skim milk in TBST and incubated overnight with the appropriate primary antibody: rabbit, polyclonal anti-SMAD2 antibody, dilution 1:250, #51-1300 and rabbit, polyclonal anti-phospho-SMAD2 (Ser465, Ser467) antibody, dilution 1:500, #44-244G (both from Thermo Fisher Scientific, Waltham, MA, USA); rabbit, polyclonal anti-CREB1 antibody, dilution 1:500, #orb213777 and rabbit, polyclonal anti-phospho-CREB1 (Ser133) antibody, dilution 1:500, #orb213775 (both from Biorbyt LLC, San Francisco, CA, USA); mouse monoclonal anti-GAPDH antibody, dilution 1:5000, #G8795 (Sigma Aldrich, St. Louis, MO, USA). The next day, after gentle rising, membranes were exposed to secondary, rabbit anti-mouse IgG (whole molecule) peroxidase antibody (#A9044, dilution 1:3000, Sigma Aldrich, St. Louis, MO, USA) and goat anti-rabbit IgG (H+L) peroxidase-conjugated antibody (#32460, dilution 1:3000, Thermo Fisher Scientific, Waltham, MA, USA). Blots were visualized using a chemiluminescence method (Clarity Max™ Western ECL Substrate—Peroxide Solution, BioRad, Hercules, CA, USA) with a C-DiGit® Blot Scanner (LI-COR Biosciences, Lincoln, NE, USA). ROD was measured according to the NIH guidelines with Fiji ImageJ Software. The experiments were run four times.

[4] = test system: TGF-β1-induced MRC-5 cells; test: Protein kinase A activity; assay type: cell-based, human; details: 10 µM 30 min, then TGF-β1 30 min
Procedure: Protein Kinase A (PKA) activity in MRC-5 cells was determined using a PKA Colorimetric Activity Kit (Invitrogen, Carlsbad, CA, USA) according to the manufacturer’s protocol. MRC-5 cells were seeded in standard culture medium, and after 48 h they were serum-starved for 2 h in HBSS, followed by the addition of study compounds (10 µM) and incubation for 30 min. Finally, TGF-β1 was administered, and the samples were incubated for an additional 30 min. Whole cell lysates were used in the assay. The amount of PKA was normalized to the total protein content in each sample. The experiments were run two times in duplicates.

[5] = test system: TGF-β1-induced MRC-5 cells; test: Immunofluorescence, nuclear localization of p-CREB; assay type: cell-based, human; details: 10 µM
Procedure: as §1

MRC-5 cells [6] = test: Intracellular calcium measurements (Fluo-4); assay type: cell-based, human; details: 10 µM, acute application
Procedure: MRC-5 cells were briefly washed with NaHEPES buffer (NaHEPES buffer was prepared as follows: NaCl 140 mM, KCl 4.7 mM, HEPES 10 mM, MgCl2 1 mM, glucose 10 mM; pH 7.3) and then loaded with 1 µM Fluo-4 AM (Thermo Fisher Scientific, Waltham, MA, USA) for 1 h, 37 °C in NaHEPES. After the incubation, the cells were washed again with fresh NaHEPES and used for experiments in a flow chamber perfused with NaHEPES-based extracellular solution supplemented with 1 mM CaCl2. All experiments were carried out at room temperature using Zeiss LSM 880 confocal microscope (40× oil objective), excitation was set to 488 nm, and the emission was between 500 and 600 nm. Each series of images was recorded at 256 × 256-pixel resolution, two consecutive frames were averaged, and the interval between the averaged images was set at 2 s. Fluorescence signals were plotted as F/F0, where F0 was baseline fluorescence defined as the averaged signal from ten consecutive baseline images.

T1 sequence (O75762 whole entry, species assumed): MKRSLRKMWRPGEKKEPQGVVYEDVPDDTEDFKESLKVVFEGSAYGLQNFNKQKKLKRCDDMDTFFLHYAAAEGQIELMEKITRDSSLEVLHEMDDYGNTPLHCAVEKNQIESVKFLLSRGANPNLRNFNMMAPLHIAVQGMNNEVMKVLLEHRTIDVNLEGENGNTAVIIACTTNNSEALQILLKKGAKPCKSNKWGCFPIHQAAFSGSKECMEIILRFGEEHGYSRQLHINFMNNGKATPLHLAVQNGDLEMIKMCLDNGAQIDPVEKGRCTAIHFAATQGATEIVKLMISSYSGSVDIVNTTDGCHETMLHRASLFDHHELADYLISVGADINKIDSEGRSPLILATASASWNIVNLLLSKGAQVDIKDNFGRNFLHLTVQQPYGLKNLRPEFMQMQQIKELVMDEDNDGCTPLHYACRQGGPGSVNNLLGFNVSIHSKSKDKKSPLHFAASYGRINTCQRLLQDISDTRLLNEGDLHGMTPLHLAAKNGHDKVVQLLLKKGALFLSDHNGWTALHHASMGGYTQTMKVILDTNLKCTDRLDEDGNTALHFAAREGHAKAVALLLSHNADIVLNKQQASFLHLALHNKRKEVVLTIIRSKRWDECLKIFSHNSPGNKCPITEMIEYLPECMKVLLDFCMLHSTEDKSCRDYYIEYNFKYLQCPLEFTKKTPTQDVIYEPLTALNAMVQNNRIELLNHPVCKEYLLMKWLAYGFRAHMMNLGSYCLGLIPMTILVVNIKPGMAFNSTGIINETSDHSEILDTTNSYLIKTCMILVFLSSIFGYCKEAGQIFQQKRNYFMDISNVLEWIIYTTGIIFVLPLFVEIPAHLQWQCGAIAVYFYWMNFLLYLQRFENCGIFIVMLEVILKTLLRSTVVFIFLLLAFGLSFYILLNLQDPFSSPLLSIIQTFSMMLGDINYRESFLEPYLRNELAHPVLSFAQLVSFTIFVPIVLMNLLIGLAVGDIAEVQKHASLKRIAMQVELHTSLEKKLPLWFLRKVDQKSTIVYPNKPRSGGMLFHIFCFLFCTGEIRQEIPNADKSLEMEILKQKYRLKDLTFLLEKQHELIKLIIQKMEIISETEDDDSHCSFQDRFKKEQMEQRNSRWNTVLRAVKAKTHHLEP

| SMILES | TRPA1 Inhibition (% of control) (TRPA1; 10 µM) | TRPA1 Inhibition (% of control) (TRPA1; 50 µM) | inhibition at 50 µM (MRC-5 cells [1]; 50 µM) [%] | MRC-5 proliferation [% of control] (MRC-5 cells [1]; 1 µM) | MRC-5 proliferation [% of control] (MRC-5 cells [1]; 5 µM) | MRC-5 proliferation [% of control] (MRC-5 cells [1]; 10 µM) | MRC-5 proliferation [% of control] (MRC-5 cells [1]; 15 µM) | MRC-5 proliferation [% of control] (MRC-5 cells [1]; 20 µM) | MRC-5 proliferation [% of control] (MRC-5 cells [1]; 50 µM) | number of myofibroblasts (MRC-5 with α-SMA-positive stress fibers); fibroblast to myofibroblast transition [2] | TGF-β1-induced Smad-2 phosphorylation (immunoblot) [3] | Protein kinase A activity in TGF-β1-induced fibroblasts [4] | elevation of fraction of MRC-5 cells with nuclear p-CREB localization [5] | increase in average Ca2+ response area over baseline (MRC-5 cells [6]) [fold] |
| --- | --- | --- | --- | --- | --- | --- | --- | --- | --- | --- | --- | --- | --- | --- |
| CC(C)c1ccc(NC(=O)Cn2cnc3c2c(=O)n(C)c(=O)n3C)cc1 [HC-030031, 2-(1,3-dimethyl-2,6-dioxo-1,2,3,6-tetrahydro-7H-purin-7-yl)-N-(4-isopropylphenyl)acetamide, reference compound] | 91.8 % of control | 98.8 % of control | 15 | 98 % of control | 96 % of control | 95 % of control | 90 % of control | 90 % of control | 85 % of control | did not show any significant effect | no differences | no significant change | only a slight increase | – |
| CC(C)CN1C(=O)/C(=C/C(=O)O)c2cccc(F)c21 [ASP 7663, (E)-2-(7-fluoro-1-isobutyl-2-oxoindolin-3-ylidene)acetic acid, reference compound] | – | – | 14 | 99 % of control | 97 % of control | 96 % of control | 92 % of control | 89 % of control | 86 % of control | – | – | – | – | 10 |
